In ChEMBL document CHEMBL5465560, “Selectivity Literature for EUbOPEN Chemogenomic Library” (2024):

What was measured:
[1] = target: T1, Diacylglycerol kinase eta (Homo sapiens) (UniProt Q86XP1); assay: Selectivity interaction (Kinase panel (KiNativ target engagement assay in Jurkat cells)) EUB0001635a DGKH; format: cell-based; conditions: Selectivity number of off-targets 0.0, Selectivity number of targets 233.0, Source Knowledge https://www.sciencedirect.com/science/article/pii/S2451945619300674?via%3Dihub, at 1 µM
T1 sequence (whole entry): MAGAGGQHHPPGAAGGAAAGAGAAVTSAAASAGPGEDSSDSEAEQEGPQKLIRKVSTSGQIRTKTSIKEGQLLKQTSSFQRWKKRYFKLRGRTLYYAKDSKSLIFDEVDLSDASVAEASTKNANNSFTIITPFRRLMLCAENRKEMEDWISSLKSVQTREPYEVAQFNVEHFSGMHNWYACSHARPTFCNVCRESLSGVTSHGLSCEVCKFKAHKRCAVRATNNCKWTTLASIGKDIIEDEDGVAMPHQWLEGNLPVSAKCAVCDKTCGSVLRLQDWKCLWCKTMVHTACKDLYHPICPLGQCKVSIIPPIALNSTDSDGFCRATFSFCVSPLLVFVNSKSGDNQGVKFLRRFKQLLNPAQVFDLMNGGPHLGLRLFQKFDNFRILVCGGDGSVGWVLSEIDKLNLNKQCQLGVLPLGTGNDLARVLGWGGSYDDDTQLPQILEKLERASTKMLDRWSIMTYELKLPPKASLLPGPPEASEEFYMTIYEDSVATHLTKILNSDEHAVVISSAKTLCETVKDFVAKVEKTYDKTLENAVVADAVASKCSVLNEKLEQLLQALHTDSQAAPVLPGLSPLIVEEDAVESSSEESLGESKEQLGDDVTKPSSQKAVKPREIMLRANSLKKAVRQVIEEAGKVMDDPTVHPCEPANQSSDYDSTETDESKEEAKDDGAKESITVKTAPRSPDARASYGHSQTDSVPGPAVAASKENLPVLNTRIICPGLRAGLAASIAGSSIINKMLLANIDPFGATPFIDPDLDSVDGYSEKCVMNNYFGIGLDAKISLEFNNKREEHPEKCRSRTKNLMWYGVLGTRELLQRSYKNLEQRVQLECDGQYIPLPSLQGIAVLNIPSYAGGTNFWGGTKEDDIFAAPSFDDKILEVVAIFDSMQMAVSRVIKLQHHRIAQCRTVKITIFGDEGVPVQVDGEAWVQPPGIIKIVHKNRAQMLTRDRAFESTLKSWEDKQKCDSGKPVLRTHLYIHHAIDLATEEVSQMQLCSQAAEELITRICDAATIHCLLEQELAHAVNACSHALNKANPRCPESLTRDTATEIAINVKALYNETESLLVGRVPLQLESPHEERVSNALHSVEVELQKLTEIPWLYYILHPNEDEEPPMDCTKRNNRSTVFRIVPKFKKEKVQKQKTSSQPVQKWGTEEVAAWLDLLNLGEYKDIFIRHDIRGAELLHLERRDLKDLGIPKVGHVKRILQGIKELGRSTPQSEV

[2] = target: T2, TGF-beta receptor type-1 (Homo sapiens) (UniProt P36897); conditions: at 10 µM
T2 sequence (whole entry): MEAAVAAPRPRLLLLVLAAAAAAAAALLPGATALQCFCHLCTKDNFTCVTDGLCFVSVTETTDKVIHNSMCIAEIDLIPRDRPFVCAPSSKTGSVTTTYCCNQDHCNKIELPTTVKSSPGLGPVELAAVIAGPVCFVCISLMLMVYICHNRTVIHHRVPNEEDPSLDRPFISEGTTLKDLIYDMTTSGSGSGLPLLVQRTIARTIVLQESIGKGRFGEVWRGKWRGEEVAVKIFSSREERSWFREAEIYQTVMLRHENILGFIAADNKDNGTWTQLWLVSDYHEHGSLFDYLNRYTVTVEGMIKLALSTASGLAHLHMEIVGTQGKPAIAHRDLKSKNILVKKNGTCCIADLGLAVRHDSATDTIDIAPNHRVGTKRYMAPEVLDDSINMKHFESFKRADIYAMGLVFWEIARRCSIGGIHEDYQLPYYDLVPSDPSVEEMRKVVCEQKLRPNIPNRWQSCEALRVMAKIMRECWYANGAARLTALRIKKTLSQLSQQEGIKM

[3] = target: MAP kinase-interacting serine/threonine-protein kinase 2 (Homo sapiens, UniProt Q9HBH9); assay: Selectivity interaction (KinomeScan (DiscoverX)) EUB0001619a MKNK2; conditions: at 1 µM
[4] = target: T3, Muscle, skeletal receptor tyrosine-protein kinase (Homo sapiens) (UniProt O15146); assay: Selectivity interaction (KinomeScan (DiscoverX)) EUB0000618a MUSK; conditions: at 10 µM
T3 sequence (whole entry): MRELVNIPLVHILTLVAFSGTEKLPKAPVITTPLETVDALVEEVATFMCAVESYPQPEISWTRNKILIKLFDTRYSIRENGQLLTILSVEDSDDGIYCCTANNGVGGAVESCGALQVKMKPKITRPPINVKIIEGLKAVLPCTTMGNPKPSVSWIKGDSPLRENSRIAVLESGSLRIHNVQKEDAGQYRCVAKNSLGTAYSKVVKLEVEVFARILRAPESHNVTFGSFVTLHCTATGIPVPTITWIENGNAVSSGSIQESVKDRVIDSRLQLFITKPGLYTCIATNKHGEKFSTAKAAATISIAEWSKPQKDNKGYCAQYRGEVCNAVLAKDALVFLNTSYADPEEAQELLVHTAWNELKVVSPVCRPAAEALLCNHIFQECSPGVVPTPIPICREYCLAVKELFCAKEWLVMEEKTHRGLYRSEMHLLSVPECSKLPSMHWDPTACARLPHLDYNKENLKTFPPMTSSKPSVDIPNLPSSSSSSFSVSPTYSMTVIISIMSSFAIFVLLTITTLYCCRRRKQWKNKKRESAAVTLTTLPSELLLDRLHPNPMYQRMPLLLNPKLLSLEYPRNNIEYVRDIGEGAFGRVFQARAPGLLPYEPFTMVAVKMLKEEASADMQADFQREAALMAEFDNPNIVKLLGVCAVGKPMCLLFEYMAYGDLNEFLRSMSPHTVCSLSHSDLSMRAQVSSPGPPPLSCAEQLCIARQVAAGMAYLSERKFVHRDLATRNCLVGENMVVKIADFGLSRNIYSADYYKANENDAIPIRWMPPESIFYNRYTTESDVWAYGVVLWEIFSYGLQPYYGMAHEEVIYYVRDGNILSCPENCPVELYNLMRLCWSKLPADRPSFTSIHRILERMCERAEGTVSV

[5] = target: Fibroblast growth factor receptor 3 (Homo sapiens, UniProt P22607); assay: Selectivity interaction (Kinase panel (Invitrogen)) EUB0000639a FGFR3; conditions: at 200 nM
Sequence of Fibroblast growth factor receptor 3 (P22607 23-806 limits assumed): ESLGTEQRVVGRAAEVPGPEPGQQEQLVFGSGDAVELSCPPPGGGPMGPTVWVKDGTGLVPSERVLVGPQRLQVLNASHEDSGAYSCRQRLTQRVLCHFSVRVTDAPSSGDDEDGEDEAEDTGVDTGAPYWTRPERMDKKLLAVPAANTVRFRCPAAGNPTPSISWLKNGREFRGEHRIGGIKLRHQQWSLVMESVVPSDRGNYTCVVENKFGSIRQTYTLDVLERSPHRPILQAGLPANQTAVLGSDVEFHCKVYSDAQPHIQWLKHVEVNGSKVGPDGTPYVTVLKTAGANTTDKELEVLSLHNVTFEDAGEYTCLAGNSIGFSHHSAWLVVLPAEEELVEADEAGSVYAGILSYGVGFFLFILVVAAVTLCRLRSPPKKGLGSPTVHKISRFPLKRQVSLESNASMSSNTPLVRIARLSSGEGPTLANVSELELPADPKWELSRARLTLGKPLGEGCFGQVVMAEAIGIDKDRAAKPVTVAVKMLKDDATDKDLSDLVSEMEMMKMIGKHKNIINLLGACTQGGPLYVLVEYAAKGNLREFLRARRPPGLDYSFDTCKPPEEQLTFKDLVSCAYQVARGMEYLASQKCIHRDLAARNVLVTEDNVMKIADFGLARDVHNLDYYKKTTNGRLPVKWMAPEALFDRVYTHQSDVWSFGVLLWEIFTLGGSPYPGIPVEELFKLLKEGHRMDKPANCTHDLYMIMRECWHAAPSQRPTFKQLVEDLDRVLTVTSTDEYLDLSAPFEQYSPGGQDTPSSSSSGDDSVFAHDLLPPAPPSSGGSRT

Sequence of MAP kinase-interacting serine/threonine-protein kinase 2 (Q9HBH9 whole entry, looked up): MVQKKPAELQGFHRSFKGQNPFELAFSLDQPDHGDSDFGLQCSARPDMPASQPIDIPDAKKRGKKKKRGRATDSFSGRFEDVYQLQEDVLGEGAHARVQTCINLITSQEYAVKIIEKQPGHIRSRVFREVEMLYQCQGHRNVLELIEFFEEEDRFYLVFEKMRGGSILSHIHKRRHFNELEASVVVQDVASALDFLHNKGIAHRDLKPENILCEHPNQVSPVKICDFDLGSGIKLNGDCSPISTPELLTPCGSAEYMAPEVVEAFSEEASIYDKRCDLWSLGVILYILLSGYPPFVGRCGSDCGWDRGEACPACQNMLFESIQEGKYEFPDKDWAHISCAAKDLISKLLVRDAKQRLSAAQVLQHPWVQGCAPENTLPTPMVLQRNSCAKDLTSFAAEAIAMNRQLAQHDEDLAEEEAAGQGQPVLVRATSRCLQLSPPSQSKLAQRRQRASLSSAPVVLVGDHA

`C=CC(=O)Nc1ccc(C(=O)Nc2[nH]nc3c2CN(C(=O)N[C@H](CN(C)C)c2ccccc2)C3(C)C)cc1` was tested, and the % of engagement [1] was 16.5%.
`Cc1cc([C@@H](C)Nc2ccccc2C(=O)O)c2nc(N3CCOCC3)cc(=O)n2c1` [AZD-6482] gave a % of control [2] of 100%.
`N#Cc1cccc(-c2c[nH]c3ncnc(N4CCOCC4)c23)c1` showed a % of control [3] of 90%.
`O[C@H]1CC[C@H](Nc2ncc3nc(Nc4c(F)cc(F)cc4F)n([C@H]4CCOC4)c3n2)CC1` showed a % of control [4] of 63%.
Compound `CC[C@@H]1[C@H](F)C(=O)N[C@@H]1COc1nccc2cc(C(N)=O)c(OC)cc12` [ZIMLOVISERTIB] has a % of inhibition [5] of 2.45%.
